Measurements: patent US6436917B1, “Non-estrogenic estradiol derivative compounds with anti-oxidative activity” (Jenapharm GmbH & Co. KG, priority 1997, dated 2002)

Tests used:
[1] = Fe(III) reduction assay (stimulation of Fe(III) reduction); format: biochemical; details: 25 μM Fe(III) chloride, tris-HCl pH 7.4; test concentration not given
Source text: The testing of the substances for their ability to stimulate Fe(III) reduction occurs according to B. Ruiz Larrea, et al, “Antioxidant effects of estradiol and 2-hydroxyestradiol on iron-induced lipid peroxidation of rat liver microsomes”, Steroids 39 (1994), p. 383-388 and B. Ruiz-Larrea, et al, Effects of estrogens on the redox chemistry of iron: A possible mechanism of the antioxidant action of estrogens”, Steroids 60 (1995), pp. 780 to 783.
The biological sample contained the following components: 25 μM Fe(III) chloride in 150 mM tris-HCl (pH=7.4), 15 mM 1,10-phenanthrolene and the substance to be tested, dissolved in an ethanol vehicle. The formation of the Fe(II) phenanthroline complex is registered spectrophotometrically at 510 nm.

[2] = Fe(II) oxidation assay (inhibition of Fe(II)-autooxidation); format: biochemical; details: for FE(II)-AUTOXIDATION Inhibition, %: synaptosomal membrane/lipid fractions, 50 μM Fe(II) sulfate, pH 7.4, 10 min at 37° C., test concentration not given
Source text: The testing of the substances for Fe(II)-autooxidation inhibition activity occurs according to B. Ruiz-Larrea, et al, “Antioxidant effects of estradiol and 2-hydroxyestradiol on iron-induced lipid peroxidation of rat liver microsomes”, Steroids 39 (1994), pp. 383-388 and B. Ruiz-Larrea, et al, Effects of estrogens on the redox chemistry of iron: “A possible mechanism of the antioxidant action of estrogens”, Steroids 60 (1995), pp. 780-783.
All autooxidation experiments involving the Fe(II) ions were performed in aqueous solutions, which contain synaptosomal membrane/lipid fractions. A 1.0 ml biological sample containing 50 μM Fe(II) sulfate, 45 mM tris-HCl buffer (pH=7.4) and 0.08 mg of synaptosomal proteins were incubated with test substances dissolved in ethanol (10% v/v) for 10 min in a water bath at 37° C., subsequently stopped by addition of 50 μL of a 0.32 M 1,10-phenanthrolene solution and the extinction of Fe(II) phenanthroline complexes at 510 nm was measured.
All other biochemicals are of the highest analytical grade of purity. The test substances are preferably made in the form of a 20 millimolar stock solution in 95% ethanol and diluted immediately prior to the start of the experiment.

[3] = test system: vaginal epithelium of ovariectomized rats; test: Allen-Doisy test, estrogenicity in vivo in ovariectomized rats (vaginal smears); parameters: species or system rat; details: one-time subcutaneous administration d1, ovariectomized rats
Method: Estrogens lead to characteristic changes in vaginal epithelium in ovariectomized rodents. The upper cells become heavily cornified and a strong proliferation occurs. These changes in cell formation were determined by vaginal smears. The occurrence of cornified anuclear epithelial cells is an expression of estrogen-specific activity (Allen-Doisy Test).
Subcutaneous Testing for Estrogen Activity
Estrogens lead to characteristic changes in vaginal epithelium with ovariectomized rodents. Strong proliferation and cornification of the upper cell layer occurs. These changes are detectable in cells from vaginal smears. The occurrence of cornified anuclear epithelial cells is an expression of an estrogen-specific activity—i.e. the Allen-Doisy Test—according to R. J. Dorfman, (Hrsg.), Methods in Hormone Research, p. 72 ff, Academic Press, New York, 1969.
White Wistar Rats (origin: Shoe: WIST=Mol : WIST, n=48) that weighed from 180 to 200 g were supplied, divided randomly into trial groups (n=3 to 5 animals/group), habituated in supporting conditions for about one week and subsequently ovariectomized under anesthesia with ursotami.
The test substances for subcutaneous and oral administration were formulated in benzyl benzoate/castor oil (1+4) or in polyoxyethylene(50-stearate) by Myrj® (85 mg polyoxyethylene(50-stearate) in 100 ml 0.9% w/v sodium chloride solution).
The administered volume amounted to 0.2 ml/animal.
Rats with a weight of about 200 g were ovariectomized under anesthesia with ursotami and about 2 weeks after that the animal was tested in the presence of a castrated vaginal cell formation (dioestrus). After that 0.2 ml per animal of the test substance was administered once subcutaneously. Vaginal smears were taken 24, 48, 54 and 72 hours after the one-time administration of the test substance and subsequent oestrus stages were evaluated(dioestrus=1; proestrus=2; oestrus=3; metoestrus=4). The experiment was ended after four days according to the standard ALLEN-DOISY test. The animals were sacrificed under anesthesia in ether by dislocation of the neck vertebral column, the uterus was prepared and its moist weight (without secretion) was measured. The suprarenal capsules were also prepared and weighed.
The results of the colpotropic test—the occurrences of oestral vaginal cell forms as reagents per doses group and the uteropic activity(uterus weight) were measured. The average of the uterus weight of the test groups was compared with the average of the vehicular groups and, if necessary, the significance of the differences was determined by a t-test according to STUDENT. The moist weight of the suprarenal capsules of all groups was also determined.

[4] = test system: Synaptosomal membrane fractions (rat); details: for IC50: read-out: LIPID PEROXIDATION INHIBITION (IC50 μMol/l), synaptosomal membrane fractions (rat), 30 min at 37° C.; for antioxidative action in lipid peroxidation (in words): compared with 17α-estradiol and 17β-estradiol
[5] = molecular target: T1, estrogen receptor (Homo sapiens, UniProt P03372); details: background; natural 17β-estradiol = 100%; cited from earlier work
T1 sequence (P03372 1-595): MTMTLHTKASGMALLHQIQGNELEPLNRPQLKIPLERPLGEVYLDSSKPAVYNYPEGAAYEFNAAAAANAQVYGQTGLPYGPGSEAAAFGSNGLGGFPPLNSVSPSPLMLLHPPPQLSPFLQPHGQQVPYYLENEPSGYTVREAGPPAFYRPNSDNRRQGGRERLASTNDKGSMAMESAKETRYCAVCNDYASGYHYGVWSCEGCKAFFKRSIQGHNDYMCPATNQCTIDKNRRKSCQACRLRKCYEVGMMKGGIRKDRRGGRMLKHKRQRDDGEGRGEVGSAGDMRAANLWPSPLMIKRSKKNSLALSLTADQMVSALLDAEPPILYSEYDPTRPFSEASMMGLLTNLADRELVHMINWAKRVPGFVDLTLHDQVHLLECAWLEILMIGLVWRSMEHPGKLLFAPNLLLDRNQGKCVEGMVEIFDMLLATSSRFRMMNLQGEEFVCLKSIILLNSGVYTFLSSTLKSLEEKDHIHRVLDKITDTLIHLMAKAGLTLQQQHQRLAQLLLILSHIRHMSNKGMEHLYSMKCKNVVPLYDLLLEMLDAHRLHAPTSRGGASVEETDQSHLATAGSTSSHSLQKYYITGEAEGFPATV

[6] = molecular target: T1, estrogen receptor; test: Relative binding affinity to estrogen receptor sites; details: relative to 17β-estradiol = 100
[7] = background statement; cited from earlier work

Structure (SMILES) | FE(III)-REDUCTION Stimulation, % [1] | FE(II)-AUTOXIDATION Inhibition, % [2] | IC50 [4] [µmol/L] | effect on the Fe(II)-autooxidation process (in words) [2] | further results
C[C@]12CC[C@@H]3c4cc(O)c(O)cc4CC[C@H]3[C@@H]1CC[C@@H]2O [2-hydroxy-17β-estradiol] | 35.26% | 64.20% | – | – | –
C[C@]12CC[C@@H]3c4ccc(O)c(O)c4CC[C@H]3[C@@H]1CC[C@H]2O [4-hydroxy-17α-estradiol] | 32.71% | 59.51% | – | – | –
C[C@]12CC[C@@H]3c4ccc(O)cc4CC[C@H]3[C@@H]1CC[C@H]2O [17α-estradiol] | ≦1% | ≦1% | 8.9 | do not or do not substantial change | Allen-Doisy Test, flaking, d1-d4 vaginal scale stage 3 (reagent/group) ([3]; 10 μg/animal): 0/6; Allen-Doisy Test, flaking, d1-d4 vaginal scale stage 3 (reagent/group) ([3]; 100 μg/animal): 6/6
C[C@]12CC[C@@H]3c4ccc(O)cc4CC[C@H]3[C@@H]1CC[C@@H]2O [17β-estradiol] | ≦1% | ≦1% | 12.4 | do not or do not substantial change | Allen-Doisy Test, flaking, d1-d4 vaginal scale stage 3 (reagent/group) ([3]; 0.03 μg/animal): 1/5; Allen-Doisy Test, flaking, d1-d4 vaginal scale stage 3 (reagent/group) ([3]; 0.1 μg/animal): 5/5
CN(C)c1ccc(CC2(O)CCC3C4CCc5cc(O)ccc5C4=CCC32C)cc1 (stereo not drawn) [J 844, 17α-4′-dimethylamino-phenylmethyl-estra-1,3,5(10),9(11)-tetraen-3,17-diol] | – | – | – | – | binding affinity to estrogen receptor sites [5]: less than 1%; relative binding affinity (% binding to estrogen receptor) [6]: 0.7%
COc1ccc2c(c1)CC[C@@H]1[C@@H]2CC[C@@]2(C)[C@H]1CC[C@@]2(O)Cc1ccc(N(C)C)cc1 [J 848, 3-methoxy-17α-4′-dimethylamino-phenylmethyl-estra-1,3,5(10)-trien-17-ol] | – | – | – | – | Allen-Doisy Test, flaking, d1-d4 vaginal scale stage 3 (reagent/group) ([3]; 30 μg/animal): 0/5; Allen-Doisy Test, flaking, d1-d4 vaginal scale stage 3 (reagent/group) ([3]; 300 μg/animal): 2/5; estrogen activity in vivo [7]: high estrogen activity
C[C@]12CC[C@H]3c4ccc(O)cc4CC[C@@H]3[C@H]1CC[C@H]2O [J 855, 8α, 9β, 14β-estra-1,3,5(10)-trien-3,17α-diol] | – | – | – | – | Allen-Doisy Test, flaking, d1-d4 vaginal scale stage 3 (reagent/group) ([3]; 1000 μg/animal): 5/5; Allen-Doisy Test, flaking, d1-d4 vaginal scale stage 3 (reagent/group) ([3]; 10000 μg/animal): 5/5
Cc1ccc(O)c2c1CC[C@@H]1[C@@H]2CC[C@]2(C)[C@@H](O)CC[C@@H]12 [J 1178, 4-methyl-estra-1,3,5(10)-trien-1,17β-diol] | 19.23% | 22.26% | 1.7 | have the ability to inhibit the Fe(II)-autooxidation process | Allen-Doisy Test, flaking, d1-d4 vaginal scale stage 3 (reagent/group) ([3]; 1000 μg/animal): 0/5; Allen-Doisy Test, flaking, d1-d4 vaginal scale stage 3 (reagent/group) ([3]; 10000 μg/animal): 1/5; antioxidative action in lipid peroxidation (in words) [4]: considerably stronger antioxidative action; relative binding affinity (% binding to estrogen receptor) [6]: 0.04%
Cc1ccc(O)c2c1CC[C@@H]1[C@@H]2CC[C@]2(C)[C@H](O)CC[C@@H]12 [J 1179, 4-methyl-estra-1,3,5(10)-trien-1,17α-diol] | 21.41% | 26.07% | 1.94 | have the ability to inhibit the Fe(II)-autooxidation process | Allen-Doisy Test, flaking, d1-d4 vaginal scale stage 3 (reagent/group) ([3]; 10000 μg/animal): 0/5; antioxidative action in lipid peroxidation (in words) [4]: considerably stronger antioxidative action; relative binding affinity (% binding to estrogen receptor) [6]: <0.03%
Cc1cc(C(C)(C)C)c(O)c(C(C)(C)C)c1 [butyrohydroxytoluene (BHT), butyrohydroxytoluene] | – | – | 0.95 | – | –
Cc1c(C)c2c(c(C)c1O)CC[C@@](C)(CCC[C@H](C)CCC[C@H](C)CCCC(C)C)O2 [α-tocopherol (Vitamin E), α-tocopherol] | – | – | 117 | – | –
